These results are taken from patent publication US12698289B2, “Solid forms of pharmaceutically acceptable salts of (S)-(2-ethyl-5-fluoro-4-hydroxyphenyl)-1H-indazol-3-yl)-4,6-dihydropyrrolo[3,4-d]imidazol-5(1H)-yl)(3-hydroxypyrrolidin-1-yl)methanone as JAK inhibitors” (HENAN MEDINNO PHARMACEUTICAL TECHNOLOGY CO., LTD., priority 2019, dated 2026).

For this experiment, the system named is human T cells. Nature of the experiment: IL-2 induced human T cell proliferation assay (Celltiter Glo). To be noted: HT, 72 h, read-out: IC50 (nM), human T cell proliferation. (Cellular ATP, detected with luciferase, serves as a proxy for viable cell number.)

Description: The purpose of this example is to assay the activity of the compound in the JAK cell activity assay-human T cell proliferation assay.

Turning to `CCc1cc(O)c(F)cc1-c1ccc2c(-c3nc4c([nH]3)CN(C(=O)N3CC[C@H](O)C3)C4)n[nH]c2c1` [Compound of formula (I), (S)-(2-(6-(2-ethyl-5-fluoro-4-hydroxyphenyl)-1H-indazol-3-yl)-4,6-dihydropyrrolo[3,4-d]imidazol-5-(1H)-yl) (3-hydroxy pyrrolidin-1-yl) ketone], the IC50 is 13 nM.
